This is an account of results in paper PMC7211837, “Design, synthesis, molecular modelling and in vitro screening of monoamine oxidase inhibitory activities of novel quinazolyl hydrazine derivatives” (Royal Society Open Science, 2020).

Values joined by “and” are separate entries in the source; they are usually repeats but may differ in a detail not shown here. Equal entries are not always repeated. “Also recorded” adds a separate entry of the source.

Data set [1] has as its target T1, membrane-bound human MAO-A (Homo sapiens, UniProt P21397).
T1 sequence (P21397 1-527): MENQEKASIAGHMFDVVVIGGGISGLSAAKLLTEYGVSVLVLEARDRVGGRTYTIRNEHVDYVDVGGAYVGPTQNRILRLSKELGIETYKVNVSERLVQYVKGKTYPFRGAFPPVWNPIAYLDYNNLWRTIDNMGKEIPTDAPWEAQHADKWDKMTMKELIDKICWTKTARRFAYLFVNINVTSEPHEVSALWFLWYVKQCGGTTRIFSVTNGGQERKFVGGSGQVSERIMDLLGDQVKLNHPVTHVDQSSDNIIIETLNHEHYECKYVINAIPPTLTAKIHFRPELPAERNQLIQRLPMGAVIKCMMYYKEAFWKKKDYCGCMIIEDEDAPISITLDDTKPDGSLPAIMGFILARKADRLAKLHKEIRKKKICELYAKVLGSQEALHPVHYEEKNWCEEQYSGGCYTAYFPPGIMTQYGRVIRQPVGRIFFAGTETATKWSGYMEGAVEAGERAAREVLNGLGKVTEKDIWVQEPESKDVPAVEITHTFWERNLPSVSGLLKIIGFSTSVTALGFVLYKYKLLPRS
As to the kind of experiment: MAO-A inhibition, H2O2/horseradish peroxidase coupled fluorescence assay with tyramine. The following applies: for inhibition at 10 µM: read-out: % inhibition at 10 μM hMAO-A, 10 μM compound, tyramine 0.8 mM (2 × KM), average of two independent experiments; for IC50 (μM) hMAO-A / IC50: tyramine at 2 × KM, seven concentrations 0.01–300 µM, ± s.d., two independent experiments; for IC50: read-out: IC50 (μM) hMAO-A; for selectivity MAO-A versus MAO-B: from IC50 values on MAO-A and MAO-B; for inhibition of MAO-A compared with MAO-B in the screen: screen at 10 µM. The class given is biochemical. The method, then: (§1) Incomplete inhibition of activity could arise either from indirect effects on these enzymes or from the compounds acting as substrates at the highest concentrations.
(§2) The activity of MAO was determined using the coupled assay method of [41, 42] in which the product, H2O2, acts with horseradish peroxidase to convert 10-acetyl-3,7-dihydroxyphenoxazine to the fluorescent resorufin. […] The data were analysed using the equation for a three-parameter curve in Graphpad PRISM v. 4, and the % inhibition calculated from the top and bottom of the resulting curve.

In data set [2] the target is T2, membrane-bound human MAO-B (Homo sapiens, UniProt P27338).
T2 sequence (P27338 1-520): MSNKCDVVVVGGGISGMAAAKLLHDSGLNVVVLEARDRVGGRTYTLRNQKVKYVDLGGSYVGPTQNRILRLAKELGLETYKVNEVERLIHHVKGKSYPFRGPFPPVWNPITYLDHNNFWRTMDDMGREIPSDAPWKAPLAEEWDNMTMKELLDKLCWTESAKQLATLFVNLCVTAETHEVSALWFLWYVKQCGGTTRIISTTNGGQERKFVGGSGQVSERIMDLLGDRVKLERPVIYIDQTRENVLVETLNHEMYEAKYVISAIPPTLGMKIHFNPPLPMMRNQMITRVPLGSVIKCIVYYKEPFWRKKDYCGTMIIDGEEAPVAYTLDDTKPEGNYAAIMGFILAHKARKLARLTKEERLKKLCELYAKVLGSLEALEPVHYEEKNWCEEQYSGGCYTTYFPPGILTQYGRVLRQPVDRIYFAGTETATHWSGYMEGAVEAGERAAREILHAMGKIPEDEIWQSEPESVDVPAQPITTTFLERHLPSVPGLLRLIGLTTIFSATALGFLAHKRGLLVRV
As to the kind of experiment: MAO-B inhibition, H2O2/horseradish peroxidase coupled fluorescence assay with tyramine. The class given is biochemical. The following applies: for maximum inhibition (%) hMAO-B: from dose–response curve, in parentheses after IC50, given if less than 95%; for inhibition at 10 µM: read-out: % inhibition at 10 μM hMAO-B, 10 μM compound, tyramine 0.32 mM (2 × KM), average of two independent experiments; for IC50 / IC50 (μM) hMAO-B: tyramine at 2 × KM, seven concentrations 0.01–300 µM, ± s.d., two independent experiments; for IC50: read-out: IC50 (μM) hMAO-B. Here is the method: as §1, §2

As for `COC(=O)CN1C(=O)c2ccccc2NC1c1ccccc1` (centres unmarked) [3a, Methyl-2-(4-oxo-2-phenyl-1,2-dihydroquinazolin-3(4H)-yl)acetate], in data set [1], the inhibition at 10 µM is -6% and the “IC50 (μM) hMAO-A” value is listed as “none”. In data set [2], the “maximum inhibition (%) hMAO-B” value was found to be 40%, the inhibition at 10 µM was determined as 38% and the IC50 amounted to 5.28 ± 1.44 µM.
Turning to `COC(=O)CN1C(=O)c2cc(Cl)ccc2NC1c1ccccc1` (centres unmarked) [3b, Methyl-2-(6-chloro-4-oxo-2-phenyl-1,2-dihydroquinazolin-3(4H)-yl)acetate], the melting point lay in the range of 162 to 163 °C. For the same compound, the inhibition at 10 µM in data set [1] was 10%. The inhibition at 10 µM in data set [2] was found to be 34%.
Consider `COC(=O)CN1C(=O)c2cc(Cl)ccc2NC1c1ccc(OC)cc1` (centres unmarked) [3c, Methyl 2-(6-chloro-2-(4-methoxyphenyl)-4-oxo–1,2-dihydroquinazolin-3(4H)-yl)acetate], for which the melting point fell in the range of 148 to 150 °C. In data set [1], the inhibition at 10 µM was -3%. Also, the inhibition at 10 µM in data set [2] was 10%.
Turning to `COC(=O)CN1C(=O)c2cc(Cl)ccc2NC1c1ccccc1OC` (centres unmarked) [3d, Methyl 2-(6-chloro-2-(2-methoxyphenyl)-4-oxo–1,2-dihydroquinazolin-3(4H)-yl)acetate], the melting point lay in the range of 152 to 154 °C. Also, in data set [1], the inhibition at 10 µM was 0%. Moreover, in data set [2], the inhibition at 10 µM worked out at 27%.
Taken in the same sequence, the figures for `NNC(=O)CN1C(=O)c2cc(Cl)ccc2NC1c1ccccc1` (centres unmarked) [4b, 2-(6-Chloro-4-oxo-2-phenyl-1,2-dihydroquinazolin-3(4H)-yl)acetohydrazide] were 184 to 185 °C, 6% and 31%.
`COc1ccc(C2Nc3ccc(Cl)cc3C(=O)N2CC(=O)NN)cc1` (centres unmarked) [4c, 2-(6-Chloro-2-(4-methoxyphenyl)-4-oxo-1,2-dihydroquiazolin-3(4H)-yl)acetohydrazide] returned a melting point of 159 to 160 °C. Besides, the inhibition at 10 µM in data set [1] was 0%. For the same compound, the inhibition at 10 µM in data set [2] stood at 27%.
In turn, `COc1ccccc1C1Nc2ccc(Cl)cc2C(=O)N1CC(=O)NN` (centres unmarked) [4d, 2-(6-Chloro-2-(2-methoxyphenyl)-4-oxo-1,2-dihydroquinazolin-3(4H)-yl)acetohydrazide] came in with a melting point of 149 to 151 °C. Besides, the inhibition at 10 µM in data set [1] was determined as 0%. The inhibition at 10 µM in data set [2] came out at 28%.
`O=C(CN1C(=O)c2ccccc2NC1c1ccccc1)NN=Cc1ccccc1` (centres unmarked) [5a, N'-Benzylidene-2-(4-oxo-2-phenyl-1,2-dihydroquinazolin-3(4H)-yl)acetohydrazide] registered a melting point of 223 to 225 °C. Moreover, in data set [1], the inhibition at 10 µM came out at 19%; the “IC50 (μM) hMAO-A” value is listed as “micromolar potency”; the half-inhibitory concentration (IC50) was 4.4 µM and 6 µM and 6.2 µM. In data set [2], the “maximum inhibition (%) hMAO-B” value was “full inhibition”; the inhibition at 10 µM amounted to 55%; the “IC50 (μM) hMAO-B” value is on record as “micromolar affinity”; the concentration for half-maximal inhibition (IC50) was < 10 µM and 10 µM.
`O=C(CN1C(=O)c2ccccc2NC1c1ccccc1)NN=Cc1ccc(O)cc1` (centres unmarked) [5b, N'-(4-Hydroxybenzylidene)-2-(4-oxo-2-phenyl-1,2-dihydroquinazolin-3(4H)-yl)acetohydrazide] returned a melting point of 230 to 232 °C. Besides, in data set [1], the inhibition at 10 µM was determined as 6% and the “IC50 (μM) hMAO-A” value is on record as “none”. Besides, in data set [2], the inhibition at 10 µM came out at 36% and the IC50 was found to be 83 µM.
`COc1ccc(C=NNC(=O)CN2C(=O)c3ccccc3NC2c2ccccc2)cc1` (centres unmarked) [5c, N'-(4-Methoxybenzylidene)-2-(4-oxo-2-phenyl-1,2-dihydroquinazolin-3(4H)-yl)acetohydrazide] had a melting point of 210 to 212 °C.
On to `COc1cc(C=NNC(=O)CN2C(=O)c3ccccc3NC2c2ccccc2)ccc1O` (centres unmarked) [5d, N'-(4-Hydroxy-3-methoxybenzylidene)-2-(4-oxo-2-phenyl-1,2-dihydroquinazolin-3(4H)yl)acetohydrazide], for which the melting point lay within 252 to 255 °C. In data set [1], the “selectivity MAO-A versus MAO-B” value was “threefold selective for MAO-A”; the inhibition at 10 µM is 71%; the “inhibition of MAO-A compared with MAO-B in the screen” value is “equal inhibition of MAO-A and MAO-B; also recorded: equally inhibited”; the “IC50 (μM) hMAO-A” value is “micromolar potency”. Also, the 50% inhibitory concentration (IC50) in data set [1] came out at 0.27 ± 0.06 µM. Also, in data set [2], the “maximum inhibition (%) hMAO-B” value was “full inhibition”, the inhibition at 10 µM was determined as 70%, the “IC50 (μM) hMAO-B” value is on record as “micromolar affinity” and the 50% inhibitory concentration (IC50) was 0.75 ± 0.18 µM.
`O=C(CN1C(=O)c2cc(Cl)ccc2NC1c1ccccc1)NN=Cc1ccccc1` (centres unmarked) [5e, N'-Benzylidene-2-(6-chloro-4-oxo-2-phenyl-1,4-dihydroquinazolin-3(2H)-yl)acetohydrazide] registered a melting point of 266 to 270 °C. For the same compound, the inhibition at 10 µM in data set [1] was determined as 10%. In addition, in data set [2], the inhibition at 10 µM stood at 19%.
As for `COc1ccc(C=NNC(=O)CN2C(=O)c3cc(Cl)ccc3NC2c2ccccc2)cc1` (centres unmarked) [5f, 2-(6-Chloro-4-oxo-2-phenyl-1,4-dihydroquinazolin-3(2H)-yl)-N'-(4-methoxybenzylidene)-acetohydrazide], the melting point fell in the range of 138 to 140 °C.
In the case of `Cc1nc2ccccc2c(=O)n1/N=C/c1ccccc1` [14a], in data set [1], the inhibition at 10 µM stood at 5% and the “IC50 (μM) hMAO-A” value was “does not inhibit MAO-A”. Moreover, in data set [2], the “maximum inhibition (%) hMAO-B” value is 77%; the inhibition at 10 µM turned out to be 40%; the IC50 was < 10 µM and 6.84 µM.
For `Cc1nc2ccccc2c(=O)n1/N=C/c1ccc(O)cc1` [14b], in data set [1], the “selectivity MAO-A versus MAO-B” value is recorded as “B-selective”, the inhibition at 10 µM worked out at 14% and the “IC50 (μM) hMAO-A” value is reported as “no inhibition”. In data set [2] (30 min preincubation, dilution ×100, increasing substrate concentration), the “mechanism of inhibition of MAO-B” value is given as “competitive inhibition”. Also, in data set [2], the “maximum inhibition (%) hMAO-B” value is 77%, the inhibition at 10 µM was found to be 52% and the 50% inhibitory concentration (IC50) worked out at 4.64 ± 0.41 µM.
For the compound `COc1ccc(/C=N/n2c(C)nc3ccccc3c2=O)cc1` [14c], the inhibition at 10 µM in data set [1] is 8%. Moreover, in data set [2], the “maximum inhibition (%) hMAO-B” value is listed as 73%, the inhibition at 10 µM was 44% and the IC50 stood at 6.75 ± 1.06 µM.
Consider `COc1cc(/C=N/n2c(C)nc3ccccc3c2=O)ccc1O` [14d], for which the inhibition at 10 µM in data set [1] amounted to 11%. In data set [2], the “maximum inhibition (%) hMAO-B” value was found to be 77%, the inhibition at 10 µM amounted to 44% and the half-inhibitory concentration (IC50) is 5.93 ± 1.02 µM.
With `NNC(=O)Cn1c(-c2ccccc2)nc2ccccc2c1=O` [compound 7, 2-(4-oxo-2-phenylquinazolin-3(4H)-yl)acetohydrazide], the melting point lay within 215 to 218 °C.
`COC(=O)Cn1c(-c2ccccc2)nc2ccccc2c1=O` [compound 8, Methyl 2-(4-oxo-2-phenylquinazolin-3(4H)-yl)acetate] registered a melting point of 115 to 116 °C.
Turning to `Cc1nc2ccccc2c(=O)n1CC(=O)NN` [compound 11, 2-(2-Methyl-4-oxoquinazolin-3(4H)-yl)acetohydrazide], in data set [1], the inhibition at 10 µM stood at 15%; the “inhibition of MAO-A compared with MAO-B in the screen” value was “equal inhibition of MAO-A and MAO-B; also recorded: equally inhibited”. Moreover, in data set [2], the inhibition at 10 µM was determined as 19% and the IC50 is above 100 µM.
With `Cc1nc2ccccc2c(=O)n1N` [compound 13], the inhibition at 10 µM in data set [1] was -8%; in data set [2] it was 23%.
Turning to `COc1ccc2c(c1)[nH]c1c(C)nccc12` [harmine, reference compound], the inhibition at 10 µM in data set [1] came to 100%. Further, in data set [2], the inhibition at 10 µM came out at 17% and the IC50 turned out to be 11.6 ± 3.1 µM.
As for `C[C@H](NCc1ccc(OCc2cccc(F)c2)cc1)C(N)=O` [safinamide, reference compound], in data set [1], the inhibition at 10 µM was determined as 11%.

A word on the inhibition: it is the change of the read-out against control, counted positive when it falls. By IC50 is commonly meant the point on the concentration scale where inhibition reaches its midpoint. By melting point is commonly meant the temperature of the solid-liquid transition.
